According to patent US11919965B2, “Methods of treating multiple myeloma with bispecific anti-BCMA x anti-CD3 antibodies” (Regeneron Pharmaceuticals, Inc., priority 2019, dated 2024):

Tests used:
[1] = test system: established BCMA-expressing NCI-H929 multiple myeloma tumors; assay: Xenogenic tumor model, established NCI-H929 tumors + human PBMC in NSG mice, treatment from day 5 (Example 12); format: in vivo, mouse; settings: for Average Tumor Size (mm3) ± SEM on Day 5: day of first dose
Method: To determine the in vivo efficacy of anti-BCMA×anti-CD3 bispecific antibodies (Abs), a xenogenic tumor study was performed. Immunodeficient NOD.Cg-Prkdc^scidII2rg^tm1Wjl/SzJ (NSG) mice were subcutaneously implanted with a mixture of 10×10^6 BCMA-expressing NCI-H929 human multiple myeloma tumor cells and 0.5×10^6 human peripheral blood mononuclear cells (PBMC) isolated from a normal, healthy donor. The tumors were allowed to grow and establish for 5 days until they were approximately 70 mm^3 in size. […] The mice were administered these Abs twice per week for a total of seven doses, and tumor growth was assessed over 55 days.
Implantation and measurement of xenogenic tumors: NSG mice were subcutaneously implanted with a mixture of 10×10^6 BCMA-expressing NCI-H929 multiple myeloma cells and 0.5×10^6 PBMC derived from a normal, healthy donor. The tumors were allowed to grow and establish for 5 days until they were approximately 70 mm^3 in size. […] The mice were administered Abs twice per week for a total of seven doses. Tumor growth was measured with calipers twice per week for the duration of the experiment.
(§1) Calculation of xenogenic tumor growth and inhibition: In order to determine tumor volume by external caliper, the greatest longitudinal diameter (length in mm) and the greatest transverse diameter (width in mm) were determined. Tumor volumes based on caliper measurements were calculated by the formula: Volume (mm^3)=(length× width^2)/2.

[2] = test system: BCMA-expressing MOLP-8 multiple myeloma tumors; assay: Xenogenic tumor model, MOLP-8 + human PBMC s.c. in NSG mice, dose response (Example 13); format: in vivo, mouse
Method: To determine the in vivo efficacy of anti-BCMA×anti-CD3 bispecific antibodies (Abs), a xenogenic tumor study was performed. Immunodeficient NOD.Cg-Prkdc^scidII2rg^tm1Wjl/SzJ (NSG) mice were subcutaneously implanted with a mixture of 5×10^6 BCMA-expressing MOLP-8 human multiple myeloma tumor cells and 1×10^6 human peripheral blood mononuclear cells (PBMC) isolated from a normal, healthy donor. […] The mice were administered these Abs twice per week for a total of seven doses, and tumor growth was assessed over 56 days. While the BCMA+ MOLP-8 tumors grew similarly in the vehicle- and CD3-binding control-treated mice, both BCMA×CD3 Abs that were tested prevented the growth of tumors in a dose-dependent manner in vivo.
Implantation and measurement of xenogenic tumors: NSG mice were subcutaneously implanted with a mixture of 5×10^6 BCMA-expressing MOLP-8 multiple myeloma cells and 1×10^6 PBMC derived from a normal, healthy donor. […] The mice were administered Abs twice per week for a total of seven doses. Tumor growth was measured by caliper twice per week for the duration of the experiment.
as §1

monkey BCMA-MMH = assay: SPR (Biacore 4000) binding kinetics at 25° C.
monkey BCMA-MMH, sequence (as listed by the source): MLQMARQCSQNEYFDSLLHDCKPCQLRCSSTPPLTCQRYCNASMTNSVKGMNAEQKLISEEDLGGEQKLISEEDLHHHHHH
Method: (§2) The CM5 Biacore sensor surface was derivatized by amine coupling with a monoclonal mouse anti-human Fc antibody (GE, #BR-1008-39) to capture purified anti-BCMA mAbs and anti-BCMA×anti-CD3 bispecific mAbs. All Biacore binding studies were performed in a buffer composed of 0.01M HEPES pH 7.4, 0.15M NaCl, 3 mM EDTA, 0.05% v/v Surfactant P20 (HBS-ET running buffer). […] Antigen samples were then injected over the anti-BCMA and anti-BCMA×anti-CD3 bispecific mAbs captured surfaces at a flow rate of 30 μL/minute. Antibody-reagent association was monitored for 5 minutes while dissociation in HBS-ET running buffer was monitored for 10 minutes. All of the binding kinetics experiments were performed at 25° C. Kinetic association (ka) and dissociation (kd) rate constants were determined by fitting the real-time sensorgrams to a 1:1 binding model using Scrubber 2.0c curve fitting software. Binding dissociation equilibrium constants (KD) and dissociative half-lives (t1/2) were calculated from the kinetic rate constants as: […]

monkey BCMA-MFC = assay: SPR (Biacore 4000) binding kinetics at 25° C.
monkey BCMA-MFC, sequence (as listed by the source): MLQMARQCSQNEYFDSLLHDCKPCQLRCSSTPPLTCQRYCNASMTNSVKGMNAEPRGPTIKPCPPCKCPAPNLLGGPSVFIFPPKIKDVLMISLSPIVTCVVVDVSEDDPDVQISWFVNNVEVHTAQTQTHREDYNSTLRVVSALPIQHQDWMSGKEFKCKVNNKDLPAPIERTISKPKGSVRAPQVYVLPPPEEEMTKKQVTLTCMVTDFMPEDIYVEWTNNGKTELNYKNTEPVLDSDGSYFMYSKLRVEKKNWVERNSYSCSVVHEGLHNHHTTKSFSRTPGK
Method: as §2

REGN5458: anti-BCMA×anti-CD3 bispecific antibody: mAb21581 BCMA heavy chain, mAb7221G CD3 heavy chain and common light chain; SEQ ID NOs 126, 127, 129
Average Tumor Size (mm3) ± SEM on Day 8 ([1]; 0.04 mg/kg): 130.3 ± 16.7 mm3 | Average Tumor Size (mm3) ± SEM on Day 15 ([1]; 0.04 mg/kg): 1031.2 ± 164.3 mm3 | Average Tumor Size (mm3) ± SEM on Day 19 ([1]; 0.04 mg/kg): 2467.5 ± 370.0 mm3 | Average Tumor Size (mm3) ± SEM on Day 22 ([1]; 0.04 mg/kg): 3745.7 ± 541.2 mm3 | Average Tumor Size (mm3) ± SEM on Day 27 ([1]; 0.04 mg/kg): 1589.1 ± 0 mm3 | Average Tumor Size (mm3) ± SEM on Day 30 ([1]; 0.04 mg/kg): 2886.5 ± 0 mm3 | Average Tumor Size (mm3) ± SEM on Day 5 ([1]; 0.04 mg/kg): 58.1 ± 5.6 mm3 | Average Tumor Size (mm3) ± SEM on Day 8 ([1]; 0.4 mg/kg): 120.3 ± 16.3 mm3 | Average Tumor Size (mm3) ± SEM on Day 12 ([1]; 0.4 mg/kg): 262.7 ± 61.6 mm3 | Average Tumor Size (mm3) ± SEM on Day 15 ([1]; 0.4 mg/kg): 476.2 ± 133.5 mm3 | Average Tumor Size (mm3) ± SEM on Day 19 ([1]; 0.4 mg/kg): 1347.5 ± 334.7 mm3 | Average Tumor Size (mm3) ± SEM on Day 22 ([1]; 0.4 mg/kg): 2068.5 ± 465.0 mm3 | Average Tumor Size (mm3) ± SEM on Day 27 ([1]; 0.4 mg/kg): 3463.9 ± 1025.0 mm3 | Average Tumor Size (mm3) ± SEM on Day 30 ([1]; 0.4 mg/kg): 2144.2 ± 2144.2 mm3 | Average Tumor Size (mm3) ± SEM on Day 35 ([1]; 0.4 mg/kg): 0 ± 0 mm3 | Average Tumor Size (mm3) ± SEM on Day 40 ([1]; 0.4 mg/kg): 0 ± 0 mm3 | Average Tumor Size (mm3) ± SEM on Day 55 ([1]; 0.4 mg/kg): 0 ± 0 mm3 | Average Tumor Size (mm3) ± SEM on Day 5 ([1]; 0.4 mg/kg): 69.3 ± 7.3 mm3 | Average Tumor Size (mm3) ± SEM on Day 8 ([1]; 4 mg/kg): 64.7 ± 16.4 mm3 | Average Tumor Size (mm3) ± SEM on Day 12 ([1]; 4 mg/kg): 19.5 ± 10.9 mm3 | Average Tumor Size (mm3) ± SEM on Day 15 ([1]; 4 mg/kg): 25.6 ± 19.2 mm3 | Average Tumor Size (mm3) ± SEM on Day 19 ([1]; 4 mg/kg): 40.6 ± 32.8 mm3 | Average Tumor Size (mm3) ± SEM on Day 22 ([1]; 4 mg/kg): 78.3 ± 60.8 mm3 | Average Tumor Size (mm3) ± SEM on Day 30 ([1]; 4 mg/kg): 411.3 ± 307.2 mm3 | Average Tumor Size (mm3) ± SEM on Day 35 ([1]; 4 mg/kg): 633.5 ± 473.5 mm3 | Average Tumor Size (mm3) ± SEM on Day 40 ([1]; 4 mg/kg): 369.5 ± 369.5 mm3 | Average Tumor Size (mm3) ± SEM on Day 55 ([1]; 4 mg/kg): 0 ± 0 mm3 | Average Tumor Size (mm3) ± SEM on Day 5 ([1]; 4 mg/kg): 71.9 ± 10.3 mm3 | Average Tumor Size (mm3) ± SEM on Day 3 ([2]; 0.04 mg/kg): 9.3 ± 2.4 mm3 | Average Tumor Size (mm3) ± SEM on Day 7 ([2]; 0.04 mg/kg): 18.3 ± 5.0 mm3 | Average Tumor Size (mm3) ± SEM on Day 10 ([2]; 0.04 mg/kg): 73.9 ± 25.7 mm3 | Average Tumor Size (mm3) ± SEM on Day 14 ([2]; 0.04 mg/kg): 255.4 ± 79.7 mm3 | Average Tumor Size (mm3) ± SEM on Day 17 ([2]; 0.04 mg/kg): 494.3 ± 144.3 mm3 | Average Tumor Size (mm3) ± SEM on Day 21 ([2]; 0.04 mg/kg): 1373.0 ± 366.6 mm3 | Average Tumor Size (mm3) ± SEM on Day 23 ([2]; 0.04 mg/kg): 1882.3 ± 551.5 mm3 | Average Tumor Size (mm3) ± SEM on Day 28 ([2]; 0.04 mg/kg): 2542.5 ± 613.3 mm3 | Average Tumor Size (mm3) ± SEM on Day 31 ([2]; 0.04 mg/kg): 2906.1 ± 532.6 mm3 | Average Tumor Size (mm3) ± SEM on Day 35 ([2]; 0.04 mg/kg): 3538.0 ± 0.0 mm3 | Average Tumor Size (mm3) ± SEM on Day 3 ([2]; 0.4 mg/kg): 13.5 ± 1.5 mm3 | Average Tumor Size (mm3) ± SEM on Day 7 ([2]; 0.4 mg/kg): 1.0 ± 1.0 mm3 | Average Tumor Size (mm3) ± SEM on Day 10 ([2]; 0.4 mg/kg): 0 ± 0 mm3 | Average Tumor Size (mm3) ± SEM on Day 14 ([2]; 0.4 mg/kg): 0 ± 0 mm3 | Average Tumor Size (mm3) ± SEM on Day 17 ([2]; 0.4 mg/kg): 1.7 ± 1.7 mm3 | Average Tumor Size (mm3) ± SEM on Day 21 ([2]; 0.4 mg/kg): 5.3 ± 5.3 mm3 | Average Tumor Size (mm3) ± SEM on Day 23 ([2]; 0.4 mg/kg): 9.7 ± 9.7 mm3 | Average Tumor Size (mm3) ± SEM on Day 28 ([2]; 0.4 mg/kg): 47.4 ± 47.4 mm3 | Average Tumor Size (mm3) ± SEM on Day 31 ([2]; 0.4 mg/kg): 104.7 ± 92.6 mm3 | Average Tumor Size (mm3) ± SEM on Day 35 ([2]; 0.4 mg/kg): 375.1 ± 307.5 mm3 | Average Tumor Size (mm3) ± SEM on Day 42 ([2]; 0.4 mg/kg): 968.8 ± 689.2 mm3 | Average Tumor Size (mm3) ± SEM on Day 56 ([2]; 0.4 mg/kg): 1742.4 ± 635.2 mm3 | Average Tumor Size (mm3) ± SEM on Day 3 ([2]; 4 mg/kg): 12.5 ± 1.3 mm3 | Average Tumor Size (mm3) ± SEM on Day 7 ([2]; 4 mg/kg): 0 ± 0 mm3 | Average Tumor Size (mm3) ± SEM on Day 10 ([2]; 4 mg/kg): 0 ± 0 mm3 | Average Tumor Size (mm3) ± SEM on Day 14 ([2]; 4 mg/kg): 0 ± 0 mm3 | Average Tumor Size (mm3) ± SEM on Day 17 ([2]; 4 mg/kg): 14.5 ± 7.3 mm3 | Average Tumor Size (mm3) ± SEM on Day 21 ([2]; 4 mg/kg): 102.7 ± 66.2 mm3 | Average Tumor Size (mm3) ± SEM on Day 23 ([2]; 4 mg/kg): 193.3 ± 117.7 mm3 | Average Tumor Size (mm3) ± SEM on Day 28 ([2]; 4 mg/kg): 627.4 ± 318.1 mm3 | Average Tumor Size (mm3) ± SEM on Day 31 ([2]; 4 mg/kg): 1018.5 ± 498.3 mm3 | Average Tumor Size (mm3) ± SEM on Day 35 ([2]; 4 mg/kg): 1342.9 ± 629.6 mm3 | Average Tumor Size (mm3) ± SEM on Day 42 ([2]; 4 mg/kg): 2363.0 ± 890.2 mm3 | Average Tumor Size (mm3) ± SEM on Day 49 ([2]; 4 mg/kg): 1683.5 ± 1683.5 mm3 | Average Tumor Size (mm3) ± SEM on Day 56 ([2]; 4 mg/kg): 3108.1 ± 3108.1 mm3 | ka (monkey BCMA-MMH): 182000 M⁻¹ s⁻¹ | kd (monkey BCMA-MMH): 0.00909 s⁻¹ | ka (monkey BCMA-MFC): 528000 M⁻¹ s⁻¹ | kd (monkey BCMA-MFC): 8.8e-05 s⁻¹
